Measured values as given in patent US20080182835A1 (priority 2006, published 2008).

Tests used:
SV-infected BHK cells = assay: Flow cytometry propidium iodide viability of Sindbis-infected BHK cells; assay type: cell-based, hamster
[1] = system: BHK cells infected with Sindbis virus; assay: Cell viability of Sindbis-infected BHK cells, Trypan blue dye-exclusion and light microscopy; assay type: cell-based, hamster; details: for cell viability (viable cell count): 48 hour infection
Procedure: Additional cell viability studies were done using a combined assessment of cellular morphology via light microscopy, or visual inspection of cell viability, and plasma membrane integrity measurements using a Trypan blue dye-exclusion assay. Specifically, BHK cells were seeded to the wells of a 96-well plate (2×10^4 cells/well) and cultured overnight in complete growth medium. […] After a 48 hour infection period, the cells were resuspended and an aliquot of cells (10 μL) was mixed with 90 μL 0.2% trypan blue. The number of viable cells was determined by counting with a hemocytometer.
Also, a corresponding set of wells was identically prepared exclusively for observation using Trypan blue staining and light microscopy. FIGS. 6A-6H are light microscopy images showing cell morphology at various concentrations of Co(NH3)6 at 48 hours post infection following 6 hours of pretreatment with Co(NH3)6. […] Viable cells remain attached to the tissue culture substrate and have an elongated, epithelial cell-like appearance. The arrows in FIGS. 6E-6G indicate examples of cells that have retained an elongated and adherent morphology. Non-viable cells are detached from the tissue culture substrate and are rounded. FIGS. 6B-6H illustrate that pronounced cell death is apparent in the presence of no Co(NH3)6 (FIG. 6B) and at lower concentrations of Co(NH3)6 (FIGS. 6C and 6D).

Co(NH3)6
percentage of PI-positive (non-viable) cells (SV-infected BHK cells; at 0.15 mM, relative to untreated infected cells): significantly lower percentage
effect of timing of treatment on survivability of the cells (SV-infected BHK cells; pretreatment, co-infection, 2, 4 and 24 hours post-infection): very little effect
cell viability (viable cell count) ([1]; Sindbis-infected, 6 hours pretreatment, at 1.2 mM): 80%
cell viability (viable cell count) ([1]; Sindbis-infected, at 0.15 mM): further decreased viability
cell morphology, viable cells by light microscopy ([1]; Sindbis-infected, 48 hours post infection, at 0.6 and 1.2 mM): viable cells appeared more pronounced
concentration providing optimal protection against Sindbis virus ([1]; light microscopy and cell viability count): 1.2 mM
